In ChEMBL document CHEMBL1201862, “PubChem BioAssay data set” (2004):
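Protocol summary: plate cells (96-well), add compound at 5 concentrations, incubate 48 h, interpolate endpoints linearly. Here, GI50 denotes the concentration required for 50% inhibition of growth.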 Calls of active or inactive are those of the source. No stated cut-off is given here; in the data, active = GI50 up to about 1.1 µM and inactive = higher.

Tests used:
Assay in all cases: NCI anticancer screen, dose series, 48 h
[1] = test system: M14
[2] = test system: MOLT-4
[3] = test system: SF-295
[4] = test system: 786-0
[5] = test system: HCT-15
[6] = test system: IGROV-1
[7] = test system: SR
[8] = test system: M19-MEL
[9] = test system: MCF7
[10] = test system: EKVX
[11] = test system: COLO 205
[12] = test system: HCT-116
[13] = test system: SW-620
[14] = test system: SN12C
[15] = test system: NCI-H460
[16] = test system: OVCAR-3
[17] = test system: HOP-92
[18] = test system: HOP-62
[19] = test system: DU-145
[20] = test system: Hs-578T

Row | SMILES | GI50 [1] | GI50 [2] | GI50 [3] | GI50 [4] | GI50 [5] | GI50 [6] | GI50 [7] | GI50 [8] | GI50 [9] | GI50 [10] | GI50 [11] | GI50 [12] | GI50 [13] | GI50 [14] | GI50 [15] | GI50 [16] | GI50 [17] | GI50 [18] | GI50 [19] | GI50 [20]
1 | O=NN(CCCl)C(=O)N[C@H]1CC[C@@H](C(=O)O)CC1 | > 100 µM (inactive) | 32.2 µM (inactive) | 52.6 µM (inactive) | 40.7 µM (inactive) | > 100 µM | > 100 µM (inactive) | 40.2 µM (inactive) | > 100 µM (inactive) | > 100 µM (inactive) | > 100 µM (inactive) | > 100 µM (inactive) | > 100 µM (inactive) | > 76.6 µM (inactive) | > 100 µM (inactive) | 49.3 µM (inactive) | > 100 µM (inactive) | > 76 µM (inactive) | 83 µM (inactive) | – | –
2 | CCCCCCCCCC(=O)Oc1cccc2onc(C)c12 | > 100 µM (inactive) | 66.8 µM (inactive) | > 100 µM (inactive) | > 100 µM (inactive) | > 100 µM | > 100 µM (inactive) | 49 µM (inactive) | > 100 µM (inactive) | – | > 100 µM (inactive) | > 100 µM (inactive) | > 100 µM (inactive) | > 100 µM (inactive) | > 100 µM (inactive) | > 100 µM (inactive) | > 100 µM (inactive) | > 100 µM (inactive) | > 100 µM (inactive) | – | –
3 | Oc1ncnc2c1nnn2CCCCCCCCCCCCn1nnc2c(O)ncnc21 | > 100 µM (inactive) | > 100 µM (inactive) | 14.5 µM (inactive) | 22.9 µM (inactive) | > 100 µM | 22.2 µM (inactive) | > 35.2 µM (inactive) | > 100 µM (inactive) | 98.6 µM (inactive) | 21.3 µM (inactive) | > 83.4 µM (inactive) | 18.2 µM (inactive) | > 100 µM (inactive) | > 85.5 µM (inactive) | 51.8 µM (inactive) | 40.5 µM (inactive) | 30 µM (inactive) | 21.7 µM (inactive) | > 100 µM (inactive) | 18.9 µM (inactive)
4 | COc1ccc([C@H]2CC(=O)N3CCCC3N2)cc1 (stereo partly specified) | > 100 µM (inactive) | > 100 µM (inactive) | > 100 µM (inactive) | > 100 µM (inactive) | > 100 µM | > 100 µM (inactive) | > 100 µM (inactive) | > 100 µM (inactive) | – | > 100 µM (inactive) | > 100 µM (inactive) | > 100 µM (inactive) | > 100 µM (inactive) | > 100 µM (inactive) | > 100 µM (inactive) | – | > 100 µM (inactive) | > 100 µM (inactive) | – | –
5 | Cc1nn2c(=O)n(-c3cccc(-n4nnc5c(-c6ccccc6)c(C)nn5c4=O)c3C)nnc2c1-c1ccccc1 | 15.2 µM (inactive) | 11.1 µM (inactive) | 44.9 µM (inactive) | 94.4 µM (inactive) | 16.1 µM | 22.4 µM (inactive) | 12.9 µM (inactive) | 23.6 µM (inactive) | – | 38.9 µM (inactive) | 17.5 µM (inactive) | 15.8 µM (inactive) | 20.6 µM (inactive) | 17.1 µM (inactive) | 18.5 µM (inactive) | 6.95 µM (inactive) | 55.5 µM (inactive) | 97.7 µM (inactive) | – | –
6 | C=C(C)C1CCC2(C)CC1c1c(c(C)cc3c1[nH]c1ccccc13)O2 (stereo unspecified) | > 25 µM (inactive) | 17.5 µM (inactive) | – | > 25 µM (inactive) | > 25 µM | > 25 µM (inactive) | > 25 µM (inactive) | > 25 µM (inactive) | – | – | > 25 µM (inactive) | > 25 µM (inactive) | > 25 µM (inactive) | > 25 µM (inactive) | > 25 µM (inactive) | > 25 µM (inactive) | > 25 µM (inactive) | 19 µM (inactive) | – | –
7 | CC(C)(C)NN=C1C(C)(C)C(=NNC(C)(C)C)C1(C)C | > 100 µM (inactive) | > 100 µM (inactive) | > 100 µM (inactive) | > 100 µM (inactive) | > 100 µM | > 100 µM (inactive) | > 100 µM (inactive) | > 100 µM (inactive) | – | – | > 100 µM (inactive) | > 100 µM (inactive) | > 100 µM (inactive) | > 100 µM (inactive) | > 100 µM (inactive) | > 100 µM (inactive) | > 100 µM (inactive) | > 100 µM (inactive) | – | –
8 | O=C(O)CCSC(=O)Nc1cccc2ccccc12 | > 100 µM (inactive) | > 100 µM (inactive) | > 100 µM (inactive) | > 100 µM (inactive) | > 100 µM | > 100 µM (inactive) | > 100 µM (inactive) | > 100 µM (inactive) | – | > 100 µM (inactive) | > 100 µM (inactive) | > 100 µM (inactive) | > 100 µM (inactive) | > 100 µM (inactive) | > 100 µM (inactive) | > 100 µM (inactive) | > 100 µM (inactive) | > 100 µM (inactive) | – | –
9 | N/C(=N\N=C=C1C(=O)Nc2ccc(F)cc21)NO | > 100 µM (inactive) | > 100 µM (inactive) | > 100 µM (inactive) | > 100 µM (inactive) | > 100 µM | > 100 µM (inactive) | > 100 µM (inactive) | > 100 µM (inactive) | – | 95.5 µM (inactive) | > 100 µM (inactive) | > 100 µM (inactive) | > 100 µM (inactive) | > 100 µM (inactive) | 74.5 µM (inactive) | > 100 µM (inactive) | 65.3 µM (inactive) | > 100 µM (inactive) | – | –
10 | CC(C)(C)OC(=O)NC(CO)c1cccc(OCc2ccccc2)c1 (stereo unspecified) | 41.9 µM (inactive) | 30.3 µM (inactive) | 63.4 µM (inactive) | > 100 µM (inactive) | > 100 µM | > 100 µM (inactive) | 86.3 µM (inactive) | > 89.7 µM (inactive) | – | 8.39 µM (inactive) | 47.3 µM (inactive) | > 65.2 µM (inactive) | > 90.4 µM (inactive) | > 100 µM (inactive) | 35.3 µM (inactive) | > 100 µM (inactive) | 22.1 µM (inactive) | > 82.4 µM (inactive) | – | –
11 | COc1ccc(/C=C\c2cc(OC)c(OC(C)=O)c(OC)c2)cc1 | 18.2 µM (inactive) | 6.43 µM (inactive) | – | 14.9 µM (inactive) | 5.12 µM | 29.7 µM (inactive) | 13.3 µM (inactive) | 8.91 µM (inactive) | – | 15.6 µM (inactive) | 34.4 µM (inactive) | 8.53 µM (inactive) | 11.1 µM (inactive) | 7.21 µM (inactive) | 2.49 µM (inactive) | 20.8 µM (inactive) | 19.1 µM (inactive) | 5.92 µM (inactive) | – | –
